Marks after values point to notes of the source that are not given here.
What was measured:
UGT1A9 = biological target: T1, UGT1A9 (Homo sapiens, UniProt O60656); assay: Inhibition of UGT1A9 (propofol glucuronidation) in human liver microsomes; type: in vitro ADME; settings: substrate 100 μM propofol, mean (minimum–maximum)
T1 construct: The reaction mixture containing 0.25 mg/mL protein of HLM; tissue Corning Life Sciences 452156; host or cells: pooled human liver microsomes, 50 donors
T1 sequence (O60656 26-530): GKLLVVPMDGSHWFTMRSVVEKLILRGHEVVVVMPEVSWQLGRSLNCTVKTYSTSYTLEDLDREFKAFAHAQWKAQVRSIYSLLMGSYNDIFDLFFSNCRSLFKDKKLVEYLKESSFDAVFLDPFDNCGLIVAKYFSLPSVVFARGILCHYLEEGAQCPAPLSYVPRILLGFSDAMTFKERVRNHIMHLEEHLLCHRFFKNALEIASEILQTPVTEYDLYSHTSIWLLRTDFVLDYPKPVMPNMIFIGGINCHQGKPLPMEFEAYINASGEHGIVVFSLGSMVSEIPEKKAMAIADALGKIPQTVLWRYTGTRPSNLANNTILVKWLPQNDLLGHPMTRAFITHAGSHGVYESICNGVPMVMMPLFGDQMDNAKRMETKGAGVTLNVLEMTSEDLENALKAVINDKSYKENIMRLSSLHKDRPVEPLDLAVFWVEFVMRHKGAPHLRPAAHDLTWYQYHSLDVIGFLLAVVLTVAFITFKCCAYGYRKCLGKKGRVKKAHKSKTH
Protocol: (§1) Their IC50 values were compared to that of sauchinone. […] UGT-mediated activities in the presence of sauchinone as an inhibitor were expressed as percentages of corresponding control values (in absence of sauchinone). From percentages of control activity versus inhibitor concentrations, a sigmoid shaped curve was fitted to the data and IC50 as an enzyme inhibition parameter was calculated by fitting the Hill equation to the data using GraphPad Prism 5 (GraphPad Software Inc., San Diego, CA, USA).

UGT1A4 = biological target: T2, UGT1A4 (Homo sapiens, UniProt P22310); assay: Inhibition of UGT1A4 (trifluoperazine glucuronidation) in human liver microsomes; type: in vitro ADME
T2 construct: The reaction mixture containing 0.25 mg/mL protein of HLM; tissue Corning Life Sciences 452156; host or cells: pooled human liver microsomes, 50 donors
T2 sequence (P22310 29-534): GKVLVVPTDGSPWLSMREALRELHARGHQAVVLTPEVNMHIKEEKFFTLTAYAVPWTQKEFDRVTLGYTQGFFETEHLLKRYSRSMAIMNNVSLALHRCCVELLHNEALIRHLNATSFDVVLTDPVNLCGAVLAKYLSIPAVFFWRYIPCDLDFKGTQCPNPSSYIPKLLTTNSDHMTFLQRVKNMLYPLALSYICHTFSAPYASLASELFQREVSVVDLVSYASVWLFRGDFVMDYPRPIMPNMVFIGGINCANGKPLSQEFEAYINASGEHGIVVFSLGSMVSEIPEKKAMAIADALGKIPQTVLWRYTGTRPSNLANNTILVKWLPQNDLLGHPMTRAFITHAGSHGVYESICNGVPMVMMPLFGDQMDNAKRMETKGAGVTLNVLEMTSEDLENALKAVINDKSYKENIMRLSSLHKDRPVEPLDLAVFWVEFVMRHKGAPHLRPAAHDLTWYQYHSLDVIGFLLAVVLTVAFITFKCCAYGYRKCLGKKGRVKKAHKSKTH
Protocol: as §1

UGT1A6 = biological target: T3, UGT1A6 (Homo sapiens, UniProt P19224); assay: Inhibition of UGT1A6 (serotonin glucuronidation) in human liver microsomes; type: in vitro ADME
T3 construct: tissue Corning Life Sciences 452156; host or cells: pooled human liver microsomes
T3 sequence (P19224 27-532): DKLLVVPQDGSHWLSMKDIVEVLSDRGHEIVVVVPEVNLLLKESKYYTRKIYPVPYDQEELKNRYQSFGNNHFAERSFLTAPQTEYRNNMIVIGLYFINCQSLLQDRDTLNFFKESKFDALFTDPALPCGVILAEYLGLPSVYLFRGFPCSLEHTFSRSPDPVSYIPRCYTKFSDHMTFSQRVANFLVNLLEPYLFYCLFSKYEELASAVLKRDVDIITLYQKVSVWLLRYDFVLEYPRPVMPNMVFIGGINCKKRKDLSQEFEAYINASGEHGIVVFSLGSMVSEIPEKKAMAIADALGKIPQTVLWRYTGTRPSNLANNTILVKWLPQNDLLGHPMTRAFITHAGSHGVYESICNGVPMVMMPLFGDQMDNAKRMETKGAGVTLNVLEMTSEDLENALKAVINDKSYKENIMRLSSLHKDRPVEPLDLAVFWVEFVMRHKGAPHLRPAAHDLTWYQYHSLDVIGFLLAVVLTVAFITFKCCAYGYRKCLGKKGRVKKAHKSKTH
Protocol: as §1

UGT2B7 = biological target: T4, UGT2B7 (Homo sapiens, UniProt P16662); assay: Enzyme kinetic assay (Ki, Dixon plot) of UGT2B7-mediated zidovudine glucuronidation; settings: human, pH 7.6
T4 sequence (P16662 24-529): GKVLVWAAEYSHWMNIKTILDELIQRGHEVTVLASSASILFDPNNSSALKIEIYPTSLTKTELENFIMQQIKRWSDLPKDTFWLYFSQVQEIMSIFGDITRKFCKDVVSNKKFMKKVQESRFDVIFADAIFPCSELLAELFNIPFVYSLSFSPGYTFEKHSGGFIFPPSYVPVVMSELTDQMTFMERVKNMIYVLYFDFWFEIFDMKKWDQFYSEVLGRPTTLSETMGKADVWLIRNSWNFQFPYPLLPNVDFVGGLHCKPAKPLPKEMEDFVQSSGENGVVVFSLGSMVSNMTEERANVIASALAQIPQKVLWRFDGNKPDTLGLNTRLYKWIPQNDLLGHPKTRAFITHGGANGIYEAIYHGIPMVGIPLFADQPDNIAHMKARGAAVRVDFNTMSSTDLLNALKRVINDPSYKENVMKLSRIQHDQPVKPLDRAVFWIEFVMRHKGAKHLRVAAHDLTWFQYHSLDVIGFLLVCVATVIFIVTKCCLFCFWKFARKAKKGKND
Protocol: Inhibitory effects of sauchinone on UGT1A1, 1A3, 1A4, 1A6, 1A9, and 2B7 activities were evaluated using HLMs. […] Spiked volume of UGT cocktail set was 1% (v/v) of total volume of mixture. […] The reaction was initiated by adding 5 mM UDPGA to a final volume of 150 μL and incubated at 37 °C for 15 or 60 min in a thermomixer at 500 rpm. Each reaction was stopped by adding 150 μL of ice-cold methanol containing 50 ng/mL IS. These mixtures were then centrifuged (12,000 rpm for 10 min at 4 °C) and 5 μL of the supernatant was injected into a UPLC-MS/MS system. […] Their IC50 values were compared to that of sauchinone. All inhibitors were dissolved in methanol (except for hecogenin, which was dissolved in dimethyl sulfoxide) and serially diluted to the required concentrations using the same solutions. The final concentration of organic solvent of inhibitors was 1% (v/v). All studies were performed in triplicate and mean values were used in the analysis. The half maximal inhibition constant (IC50) of sauchinone on UGT isoforms was estimated using GraphPad program.
Based on IC50 values, Ki values of sauchinone for UGT1A6 and 2B7 were determined. Concentrations of 0–200 μM of sauchinone were used. Other procedures were similar to those mentioned above in the study of reversible inhibitory effects of sauchinone. Inhibitory characteristics of sauchinone were initially estimated by nonlinear least squares regression analysis and Ki values were determined by Dixon plots.

[1] = Pharmacokinetic study of zidovudine with or without sauchinone in mice; settings: for CLNR / AUC(0-t) / AUC / clearance / CL renal / MRT / Vd / half-life / Ae0–24 h / GI24 h: mean ± SD, n = 11; for AUC(0-t) / AUC / clearance / CL renal / MRT / Vd / half-life: mouse, plasma, iv, 15 mg/kg; for AUC(0-t): AUC480 min; for AUC: time zero to infinity; for clearance: CL; for CL renal: CLR; for Vd: Vss; for half-life: t1/2, mice; for Ae0–24 h: zidovudine excreted into urine for 24 h; for GI24 h: zidovudine remaining or excreted in GI at 24 h
UGT1A1 = biological target: T5, UGT1A1 (Homo sapiens, UniProt P22309); assay: Inhibition of UGT1A1 (β-estradiol glucuronidation) in human liver microsomes; type: in vitro ADME; settings: substrate 10 μM β-estradiol, mean (minimum–maximum)
T5 construct: The reaction mixture containing 0.25 mg/mL protein of HLM; tissue Corning Life Sciences 452156; host or cells: pooled human liver microsomes, 50 donors
T5 sequence (P22309 26-533): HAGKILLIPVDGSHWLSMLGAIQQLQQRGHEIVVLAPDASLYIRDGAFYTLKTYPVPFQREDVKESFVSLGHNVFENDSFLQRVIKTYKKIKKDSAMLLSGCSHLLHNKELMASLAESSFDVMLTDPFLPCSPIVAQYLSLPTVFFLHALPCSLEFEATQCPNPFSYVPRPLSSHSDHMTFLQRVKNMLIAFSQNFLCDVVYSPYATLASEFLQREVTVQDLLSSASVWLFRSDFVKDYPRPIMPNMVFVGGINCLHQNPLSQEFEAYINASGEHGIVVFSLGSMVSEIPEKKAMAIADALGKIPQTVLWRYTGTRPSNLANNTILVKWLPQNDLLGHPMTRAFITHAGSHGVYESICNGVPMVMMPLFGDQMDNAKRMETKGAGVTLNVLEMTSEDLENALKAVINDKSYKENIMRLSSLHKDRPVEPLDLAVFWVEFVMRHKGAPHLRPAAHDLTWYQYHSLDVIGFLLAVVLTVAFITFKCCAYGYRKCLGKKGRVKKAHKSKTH
Protocol: as §1

[2] = substrate: NCCc1c[nH]c2ccc(O)cc12; assay: purified protein, by the assay type; settings: other: without sauchinone; pH 7.6; 37.0 °C
[3] = mice, zidovudine 15 mg/kg iv with oral 100 mg/kg sauchinone
[4] = mice, zidovudine 15 mg/kg iv with vehicle
[5] = mice, zidovudine 15 mg/kg iv, oral 100 mg/kg sauchinone

Q: Which IC50 (UGT1A9) does the source give for `O=C(O)c1cccnc1Nc1cccc(C(F)(F)F)c1` [Niflumic acid] here?
A: The IC50 was 755 nM.

Q: Which IC50 (UGT1A4) does the source give for `C[C@@H]1CC[C@@]2(OC1)O[C@H]1C[C@H]3[C@@H]4CC[C@H]5C[C@@H](O)CC[C@]5(C)[C@H]4CC(=O)[C@]3(C)[C@H]1[C@@H]2C` [Hecogenin] here?
A: Its IC50 is 3.99 µM.

Q: With `Oc1cccc2ccccc12` [1-Naphthol] as the molecule, how does the IC50 (UGT1A6) read?
A: Its IC50 is 35.2 µM.

Q: With `Cc1cn([C@H]2C[C@H](N=[N+]=[N-])[C@@H](CO)O2)c(=O)[nH]c1=O` [zidovudine] as the molecule, how does the Km (UGT2B7) read?
A: The Km was 85 µM.

Q: What about the CLNR [1, 3] of the same molecule?
A: Its CLNR is 24.5 ± 9.31 ^a mL/min/kg.

Q: And the CLNR [1, 4]?
A: Its CLNR is 34.8 ± 10.5 mL/min/kg.

Q: What about the “decrease of CL of zidovudine with sauchinone compared to without” value [1, 5] of the same molecule?
A: Its value is 29.3%.

Q: What about the “decrease of CLNR of zidovudine with sauchinone compared to without” value [1, 5] of the same molecule?
A: The value was 29.6%.

Q: And the “increase of AUC480 min of zidovudine with sauchinone compared to without” value [1, 5]?
A: The value was 53.1%.

Q: What about the AUC(0-t) [1, 3] of the same molecule?
A: The AUC(0-t) was 5730 ng·h/mL.

Q: And the AUC(0-t) [1, 4]?
A: The AUC(0-t) was 3780 ng·h/mL.

Q: And the AUC [1, 3]?
A: Its AUC is 5820 ng·h/mL.

Q: And the AUC [1, 4]?
A: The AUC was 3800 ng·h/mL.

Q: And the clearance [1, 3]?
A: The clearance was 48.6 ± 16.1 mL/min/kg.

Q: What about the clearance [1, 4] of the same molecule?
A: Its clearance is 68.7 ± 18.7 mL/min/kg.

Q: What about the CL renal [1, 3] of the same molecule?
A: The CL renal was 24 ± 8.02 mL/min/kg.

Q: What about the CL renal [1, 4] of the same molecule?
A: The CL renal was 34 ± 11.2 mL/min/kg.

Q: And the MRT [1, 3]?
A: The MRT was 43.5 min.

Q: What about the MRT [1, 4] of the same molecule?
A: The MRT was 55.8 min.

Q: And the Vd [1, 3]?
A: Its Vd is 2.1 ± 1.23 L/kg.

Q: What about the Vd [1, 4] of the same molecule?
A: Its Vd is 3.31 ± 1.67 L/kg.

Q: What about the half-life ([1]; zidovudine 15 mg/kg iv with oral 100 mg/kg sauchinone) of the same molecule?
A: The half-life was 178 ± 93.1 min.

Q: And the half-life ([1]; zidovudine 15 mg/kg iv with vehicle)?
A: Its half-life is 207 ± 133 min.

Q: And the “Ae0–24 h” value [1, 3]?
A: The value was 50.2 ± 8.41 % of dose.

Q: What about the “Ae0–24 h” value [1, 4] of the same molecule?
A: Its value is 50.3 ± 8.01 % of dose.

Q: What about the GI24 h [1, 3] of the same molecule?
A: Its GI24 h is 0.321 ± 0.646 % of dose.

Q: What about the GI24 h [1, 4] of the same molecule?
A: The GI24 h was 0.672 ± 0.999 % of dose.

Q: For `O=c1cc(-c2ccccc2)oc2cc(O)cc(O)c12` [Chrysin], which IC50 (UGT1A1) is on record?
A: The IC50 was 28.3 µM.

B1: UGT1A6 (Homo sapiens) (protein)
chain: T3 sequence (P19224 27-532)
Q: Which Km [2] does the source give for B1 here?
A: The Km was 126 µM.

Q: And the Vmax [2]?
A: The Vmax was 174 μM/min/mg protein.

Source: PMC6017115, “Inhibitory Effect of Sauchinone on UDP-Glucuronosyltransferase (UGT) 2B7 Activity” (Molecules : A Journal of Synthetic Chemistry and Natural …, 2018)
